# Assay: Form stability on drying, checked by XRPD
# Assay type: physicochemical
# Settings: solids isolated from slurry, ambient drying
# Experimental: Crystalline polymorph Form 1 (20 mg) was suspended in 0.2-0.9 mL of methyl tert-butyl ether (MTBE). The resulting slurry was stirred at room temperature for 4 days, after which the remaining solids were isolated and subjected to XRPD.
# Crystalline polymorph Form 1 (20 mg) was suspended in 0.2-0.9 mL of tetrahydrofurane:H2O (1:9 v:v). The resulting slurry was stirred at room temperature for 4 days, after which the remaining solids were isolated and subjected to XRPD.
# A solution of crystalline polymorph Form 1 (20 mg in 0.3 mL) was mixed with 0.3 mL a solution of KOH in ethyl acetate (1:1 molar ratio of KOH:Form 1), and then stirred for 2 to 5 days at room temperature. The solids were isolated and subjected to XRPD. The wet solids were also vacuum-dried at 50° C. for 2 hours, and then subjected to XRPD. […] This crystalline polymorph was also characterized by TGA, DSC, and PLM. […] Based on the results, Form 9 was considered to be a hydrate or a solvate.
# X-Ray Powder Diffraction was obtained by standard techniques using Panalytical X'Pert3 Powder XRPD on a Si zero-background holder operating with a Cu Kα radiation source at 45 kV, 40 mA (Kα1 (Å): 1.540598, Kα2 (Å): 1.544426, Kα2/Kα1 intensity ratio: 0.50). The 2θ position was calibrated against Panalytical Si reference standard disc. The scanning parameters ranged from 3 to 40° 2θ (±0.0131°) and a continuous scan at a rate of about 0.04° 2θ/minute.
row,Compound,form stability upon drying under ambient condition (XRPD)
1,"Cc1nn(-c2nc(C3=CCC(C(F)(F)F)CC3)c(SC(C)C)s2)c(C(=O)O)c1-c1cccc(F)c1 (centres unmarked) [Form 2, 4-(3-fluorophenyl)-1-(5-(isopropylthio)-4-(4-(trifluoromethyl)cyclohex-1-en-1-yl)thiazol-2-yl)-3-methyl-1H-pyrazole-5-carboxylic acid]",metastable and partially converted to Form 1
2,"Cc1nn(-c2nc(C3=CCC(C(F)(F)F)CC3)c(SC(C)C)s2)c(C(=O)O)c1-c1cccc(F)c1 (centres unmarked) [Form 8, 4-(3-fluorophenyl)-1-(5-(isopropylthio)-4-(4-(trifluoromethyl)cyclohex-1-en-1-yl)thiazol-2-yl)-3-methyl-1H-pyrazole-5-carboxylic acid]",metastable and partially converted to Form 1

# Same assay, conditions: wet solids vacuum-dried at 50° C. for 2 hours
row,Compound,change to the polymorph during drying (XRPD)
1,"Cc1nn(-c2nc(C3=CCC(C(F)(F)F)CC3)c(SC(C)C)s2)c(C(=O)[O-])c1-c1cccc(F)c1.[K+] (centres unmarked) [Form 9, potassium 4-(3-fluorophenyl)-1-(5-(isopropylthio)-4-(4-(trifluoromethyl)cyclohex-1-en-1-yl)thiazol-2-yl)-3-methyl-1H-pyrazole-5-carboxylate]",no change to the polymorph was observed
2,"Cc1nn(-c2nc(C3=CCC(C(F)(F)F)CC3)c(SC(C)C)s2)c(C(=O)[O-])c1-c1cccc(F)c1.[K+] (centres unmarked) [Form 10, potassium 4-(3-fluorophenyl)-1-(5-(isopropylthio)-4-(4-(trifluoromethyl)cyclohex-1-en-1-yl)thiazol-2-yl)-3-methyl-1H-pyrazole-5-carboxylate]",no change to the polymorph was observed
3,"Cc1nn(-c2nc(C3=CCC(C(F)(F)F)CC3)c(SC(C)C)s2)c(C(=O)O)c1-c1cccc(F)c1.N=C(N)NCCCC(N)C(=O)O [Form 13, L-arginine 4-(3-fluorophenyl)-1-(5-(isopropylthio)-4-(4-(trifluoromethyl)cyclohex-1-en-1-yl)thiazol-2-yl)-3-methyl-1H-pyrazole-5-carboxylate]",no change to the polymorph was observed
4,"Cc1nn(-c2nc(C3=CCC(C(F)(F)F)CC3)c(SC(C)C)s2)c(C(=O)O)c1-c1cccc(F)c1.NC(N)=O (centres unmarked) [Form 15, urea 4-(3-fluorophenyl)-1-(5-(isopropylthio)-4-(4-(trifluoromethyl)cyclohex-1-en-1-yl)thiazol-2-yl)-3-methyl-1H-pyrazole-5-carboxylate]",no change to the polymorph was observed
5,"Cc1nn(-c2nc(C3=CCC(C(F)(F)F)CC3)c(SC(C)C)s2)c(C(=O)O)c1-c1cccc(F)c1.O=C(O)C1CCCN1 [Form 16, L-proline 4-(3-fluorophenyl)-1-(5-(isopropylthio)-4-(4-(trifluoromethyl)cyclohex-1-en-1-yl)thiazol-2-yl)-3-methyl-1H-pyrazole-5-carboxylate]",no change to the polymorph was observed
6,magnesium 4-(3-fluorophenyl)-1-(5-(isopropylthio)-4-(4-(trifluoromethyl)cyclohex-1-en-1-yl)thiazol-2-yl)-3-methyl-1H-pyrazole-5-carboxylate [Form 14],no change to the polymorph was observed

# Reference: patent US12378234B2, “Crystalline polymorphs of a 1-thiazol-2-yl-pyrazole-5-carboxylic acid derivative” (Bantam Pharmaceutical, LLC, priority 2019, dated 2025)
